The target in assay [1] is T1, Cathepsin B (Homo sapiens, UniProt P07858). The assay can be described thus: Inhibition of human recombinant cathepsin B using Z-Arg-Arg-pNA as substrate after 10 mins by […] analysis.
Assay [2] can be described thus: Inhibition of human cathepsin L using Z-Phe-Arg-pNA as substrate after 10 mins by […] analysis.
The target of assay [3] is T2, Cathepsin S (Homo sapiens, UniProt P25774). The assay is described as follows: Inhibition of human recombinant cathepsin S using Z-Phe-Arg-pNA as substrate after 10 mins by […] analysis.
Target sequence in this assay (P25774 whole entry): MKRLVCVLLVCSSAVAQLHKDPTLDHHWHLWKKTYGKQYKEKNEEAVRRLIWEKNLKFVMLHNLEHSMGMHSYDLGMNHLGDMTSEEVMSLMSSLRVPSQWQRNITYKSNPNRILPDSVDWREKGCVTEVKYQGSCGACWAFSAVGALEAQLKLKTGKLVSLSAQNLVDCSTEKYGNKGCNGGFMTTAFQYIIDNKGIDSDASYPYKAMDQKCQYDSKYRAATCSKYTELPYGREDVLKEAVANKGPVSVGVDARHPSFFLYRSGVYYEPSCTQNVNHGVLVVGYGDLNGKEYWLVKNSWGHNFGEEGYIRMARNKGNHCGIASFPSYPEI
Assay [4] deals with T3, Cathepsin K (Homo sapiens, UniProt P43235).
T3 sequence (P43235 whole entry): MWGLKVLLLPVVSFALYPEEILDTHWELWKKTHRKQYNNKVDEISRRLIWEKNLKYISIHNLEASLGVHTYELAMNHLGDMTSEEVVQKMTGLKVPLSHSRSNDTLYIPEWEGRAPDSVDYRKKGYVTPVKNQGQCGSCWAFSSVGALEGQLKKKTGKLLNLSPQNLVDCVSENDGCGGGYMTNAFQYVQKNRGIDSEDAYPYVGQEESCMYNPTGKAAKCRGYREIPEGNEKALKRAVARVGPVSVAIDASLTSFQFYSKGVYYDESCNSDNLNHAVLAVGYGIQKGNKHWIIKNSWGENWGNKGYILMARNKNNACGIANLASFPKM
The assay can be described thus: Inhibition of human recombinant cathepsin K using Z-Leu-Arg-AMC as substrate after 10 mins by fluorimetric analysis.

For assay [5], the target named is T4, Cathepsin K (Homo sapiens) (UniProt P43235).
T4 sequence (whole entry): T3 sequence (P43235 whole entry)
Description: Binding affinity to human recombinant cathepsin K assessed as compound-enzyme half life

Assay [6] addresses T1, Cathepsin B.
Description: Binding affinity to human recombinant cathepsin B assessed as compound-enzyme half life
The target of assay [7] is T1, Cathepsin B. The assay is described as follows: Inhibition of human recombinant cathepsin B using Z-Arg-Arg-pNA as substrate after 80 mins by […] analysis.
For assay [8], the target named is T3, Cathepsin K. The assay can be described thus: Inhibition of human recombinant cathepsin K using Z-Leu-Arg-AMC as substrate after 80 mins by fluorimetric analysis.
Assay [9] can be described thus: Inhibition of human cathepsin L using Z-Phe-Arg-pNA as substrate incubated for 30 mins prior to substrate addition measured after 10 mins by […] analysis.
Assay [10] addresses T2, Cathepsin S. The assay can be described thus: Inhibition of human recombinant cathepsin S using Z-Phe-Arg-pNA as substrate after 80 mins by […] analysis.
Target sequence in this assay (P25774 whole entry): as the sequence (P25774 whole entry) above
Assay [11] addresses T2, Cathepsin S.
Target sequence in this assay (P25774 115-331 limits assumed): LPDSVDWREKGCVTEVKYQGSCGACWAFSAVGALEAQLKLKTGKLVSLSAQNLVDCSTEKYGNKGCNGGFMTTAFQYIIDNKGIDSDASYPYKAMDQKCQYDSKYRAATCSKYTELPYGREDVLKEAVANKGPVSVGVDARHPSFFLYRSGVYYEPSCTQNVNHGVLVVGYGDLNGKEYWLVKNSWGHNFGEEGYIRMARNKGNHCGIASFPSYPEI
Description: Binding affinity to human recombinant cathepsin S assessed as compound-enzyme half life

Usually Ki stands for a measure of affinity in units of concentration, obtained from inhibition or displacement.

Structures are written as SMILES.

Turning to `CN(C)c1cccc2c(S(=O)(=O)NC3(C(=O)NCC#N)CCCCC3)cccc12`, the Ki in [1] is > 40000 nM; in assay [2] it was > 40000 nM; in assay [3] it was 6600 nM; in [4], 880 nM.

`CCN(CC)c1ccc2cc(C(=O)NC3(C(=O)NCC#N)CCCCC3)c(=O)oc2c1`: the Ki was > 40000 nM in assay [1], 18000 nM in assay [2], 8400 nM in assay [3] and 230 nM in assay [4].

For `CCN(CC)c1ccc2cc(C(=O)NC3(C(=O)N(C)N(C)C#N)CCCCC3)c(=O)oc2c1`, the T1/2 in [5], in assay [6] and in [11] was 30 min in each case. For the same compound, the inhibition constant (Ki) came out at 140 nM in assay [7], 19 nM in assay [8], 760 nM in assay [9] and 750 nM in assay [10].
